Reference: patent US20230293404A1, “Compositions Comprising Natural Polymers and One or More (Bio)-Alkanediols” (Symrise AG, priority 2020, published 2023)

Legend:
[1] = Physical state of alkanediols and alkanediol mixtures at RTP; assay type: physicochemical; conditions: at RTP (room temperature, normal pressure); FIG. 3 and FIG. 4
Text: The term “liquid alkanediol” within the context of the present invention means an alkanediol component which is liquid at room or ambient temperature and under normal pressure, i.e. standard RTP conditions.
FIG. 3 is a photograph showing from left to right samples of the liquid 1,2-pentanediol, 1,2-hexanediol, 1,2-heptanediol, 2,3-heptanediol, 2,3-octanediol and 2,3-undecanediol in comparison to the solid 1,2-octanediol, 1,2-undecanediol, 1,2-nonanediol and the liquid 2,3-nonanediol. The first six alkanediols are liquid at RTP, whereas 1,2-octanediol, 1,2-nonanediol and 1,2-undecanediol are solid substances at RTP; 2,3-nonanediol is also liquid at RTP.
FIG. 4 is a representative photograph of samples of mixtures of 1,2-alkanediols with the respective 2,3-alkanediol. All mixtures are liquid. They are shown in the following order: 1,2-heptanediol (95%)+2,3-heptanediol (5%), 1,2-octanediol (95%)+2,3-octanediol (5%), and 1,2-nonanediol (95%)+2,3-nonanediol (5%).

[2] = Maximum solubility of alkanediols in water (visual assessment); assay type: physicochemical; conditions: assessed at ambient temperature after 24 h storage at 5° C.; visual observation
Text: The water solubility of a substance is the saturation mass concentration of the substance in water at a given temperature. The determination of the solubility in water relates to essentially pure substances which are stable in water and not volatile.
For the determination of the maximum water solubility of an alkanediol, water and different concentrations of the respective alkanediol were blended by stirring. […] The determination of whether the alkanediol has dissolved in water is based entirely on visual observation.

[3] = system: microbial load of natural polymers; test: Microbial load of mixtures of natural polymers with alkanediols (plating, CFU count); assay type: cell-based, bacteria; conditions: for Effect on the microbial load of the natural polymer solutions (in words): directly after preparation of the mixtures as well as after 7 days storage, Table 3
Experimental: The following tests were performed to show the influence of different alkanediols on the microbial load of natural polymers.
A selection of natural polymers as specified in Table 1 was systematically analyzed in combination with different 1,2-alkanediols and 2,3-alkanediols (0.5%). The polymers were chosen to be representative from different polymer classes:
A mixture of the natural polymer (concentration as recommended by supplier) with water and 1,2-alkanediol (0.5%) or 2,3-alkanediol (0.5%) or a mixture of 1,2-alkanediol and 2,3-alkanediol (0.5% final concentration) was prepared, as representative of a cold formulation preparation processes, and directly sampled for determination of microbial load. Additionally, the mixtures were stored at 40° C. and again sampled for microbial load after 2 days and 7 days.
The microbial load of the mixtures was determined by plating 1000 μl (or respective dilutions of the material) on an agar plate based on universal bacterial growth medium (Caseinpepton-Sojamehlpepton-Bouillon, Merck 1.05459+Agar No. 1, Oxoid LP0011). The plates were then incubated at 37° C. for 5 days and then photo documented. In parallel, bacterial colonies were counted (CFU—colony forming units per ml).

[4] = Covathick (0.5%) in water + 0.5% 2,3-alkanediol, 2 days storage at 40° C.
[5] = Covathick (0.5%) in water + 0.5% 2,3-alkanediol, 7 days storage at 40° C.
[6] = Covathick (0.5%) in water + 0.5% 2,3-alkanediol, fresh
[7] = Genuvisco (0.5%) in water + 0.5% 2,3-alkanediol, 2 days storage at 40° C.
[8] = Genuvisco (0.5%) in water + 0.5% 2,3-alkanediol, 7 days storage at 40° C.
[9] = Genuvisco (0.5%) in water + 0.5% 2,3-alkanediol, fresh
[10] = Polycos-N 75 (0.5%) in water + 0.5% 2,3-alkanediol, fresh
[11] = Table 4: Covathick (0.5%) in water + alkanediol or mixture, 0.5% total, 2 days storage at 40° C.
[12] = Table 4: Covathick (0.5%) in water + alkanediol or mixture, 0.5% total, 7 days storage at 40° C.
[13] = Table 4: Covathick (0.5%) in water + alkanediol or mixture, 0.5% total, fresh
[14] = Table 4: PolyCos N-75 (0.5%) in water + alkanediol or mixture, 0.5% total, fresh
[15] = Polycos-N 75 (0.5%) in water + 0.5% 2,3-alkanediol, 2 days storage at 40° C.
[16] = Polycos-N 75 (0.5%) in water + 0.5% 2,3-alkanediol, 7 days storage at 40° C.
[17] = Xanthan Gum (0.5%) in water + 0.5% 2,3-alkanediol, 2 days storage at 40° C.
[18] = Xanthan Gum (0.5%) in water + 0.5% 2,3-alkanediol, 7 days storage at 40° C.
[19] = Covathick (2009, cellulose 0.5%) in water + 0.5% 1,2-alkanediol, 2 days storage at 40° C.
[20] = Covathick (2009, cellulose 0.5%) in water + 0.5% 1,2-alkanediol, 7 days storage at 40° C.
[21] = Covathick (2009, cellulose 0.5%) in water + 0.5% 1,2-alkanediol, fresh
[22] = Genuvisco (CG-131, carrageenan 0.5%) in water + 0.5% 1,2-alkanediol, 7 days storage at 40° C.
[23] = Genuvisco (CG-131, carrageenan 0.5%) in water + 0.5% 1,2-alkanediol, fresh
[24] = Nativacare (5600, corn starch 3%) in water + 0.5% 1,2-alkanediol, 2 days storage at 40° C.
[25] = Nativacare (5600, corn starch 3%) in water + 0.5% 1,2-alkanediol, 7 days storage at 40° C.
[26] = Nativacare (5600, corn starch 3%) in water + 0.5% 1,2-alkanediol, fresh
[27] = Polycos-N 75 (guar gum 0.5%) in water + 0.5% 1,2-alkanediol, 2 days storage at 40° C.
[28] = Polycos-N 75 (guar gum 0.5%) in water + 0.5% 1,2-alkanediol, 7 days storage at 40° C.
[29] = Polycos-N 75 (guar gum 0.5%) in water + 0.5% 1,2-alkanediol, fresh
[30] = Xanthan Gum (Rheocare XGN 0.5%) in water + 0.5% 1,2-alkanediol, 2 days storage at 40° C.

Structure (SMILES): CCCCCCC(O)C(C)O (stereo not drawn) [2,3-nonanediol]
- Physical state [1]: liquid
- Maximum solubility in water [2]: 0.3 % by weight

Structure (SMILES): CCCCC(O)C(C)O (stereo not drawn) [2,3-heptanediol]
- Bacterial load (colony forming units) [3, 4]: 0 CFU per mL
- Bacterial load (colony forming units) [3, 5]: 0 CFU per mL
- Bacterial load (colony forming units) [3, 6]: 5 CFU per mL
- Bacterial load (colony forming units) [3, 7]: 1 CFU per mL
- Bacterial load (colony forming units) [3, 8]: 1 CFU per mL
- Bacterial load (colony forming units) [3, 9]: 5 CFU per mL
- Bacterial load (colony forming units) [3, 10]: 2 CFU per mL
- Bacterial load (colony forming units) [3, 11]: 0 CFU per mL
- Bacterial load (colony forming units) [3, 12]: 0 CFU per mL
- Bacterial load (colony forming units) [3, 13]: 5 CFU per mL
- Bacterial load (colony forming units) [3, 14]: 2 CFU per mL
- Physical state [1]: liquid
- Maximum solubility in water [2]: 3.6 % by weight

Structure (SMILES): CCCCCC(O)C(C)O (stereo not drawn) [2,3-octanediol]
- Bacterial load (colony forming units) [3, 4]: 0 CFU per mL
- Bacterial load (colony forming units) [3, 5]: 0 CFU per mL
- Bacterial load (colony forming units) [3, 6]: 4 CFU per mL
- Bacterial load (colony forming units) [3, 7]: 0 CFU per mL
- Bacterial load (colony forming units) [3, 8]: 0 CFU per mL
- Bacterial load (colony forming units) [3, 9]: 5 CFU per mL
- Bacterial load (colony forming units) [3, 15]: 0 CFU per mL
- Bacterial load (colony forming units) [3, 16]: 0 CFU per mL
- Bacterial load (colony forming units) [3, 10]: 1 CFU per mL
- Bacterial load (colony forming units) [3, 17]: 0 CFU per mL
- Bacterial load (colony forming units) [3, 18]: 0 CFU per mL
- Effect on the microbial load of the natural polymer solutions (in words) [3]: superior antimicrobial activity
- Physical state [1]: liquid
- Maximum solubility in water [2]: 1.5 % by weight

Structure (SMILES): CCCCCCCC(O)CO (stereo not drawn) [1,2-nonanediol]
- Physical state [1]: solid
- Maximum solubility in water [2]: 0.1 % by weight

Structure (SMILES): CCCCC(O)CO (stereo not drawn) [1,2-hexanediol]
- Bacterial load (colony forming units) [3, 19]: 0 CFU per ml
- Bacterial load (colony forming units) [3, 20]: >13 CFU per ml
- Bacterial load (colony forming units) [3, 21]: 3 CFU per ml
- Bacterial load (colony forming units) [3, 22]: 0 CFU per ml
- Bacterial load (colony forming units) [3, 23]: 3 CFU per ml
- Bacterial load (colony forming units) [3, 24]: 0 CFU per ml
- Bacterial load (colony forming units) [3, 25]: 0 CFU per ml
- Bacterial load (colony forming units) [3, 26]: 1 CFU per ml
- Bacterial load (colony forming units) [3, 27]: 19 CFU per ml
- Bacterial load (colony forming units) [3, 28]: 2 CFU per ml
- Bacterial load (colony forming units) [3, 29]: 9 CFU per ml
- Bacterial load (colony forming units) [3, 30]: 1 CFU per ml
- Bacterial load (colony forming units) ([3]; Xanthan Gum (Rheocare XGN 0.5%) in water + 0.5% 1,2-alkanediol, fresh): 7 CFU per ml
- Physical state [1]: liquid
- Maximum solubility in water [2]: 50 % by weight

Structure (SMILES): CCCCCCCCC(O)C(C)O (stereo not drawn) [2,3-undecanediol]
- Bacterial load (colony forming units) [3, 4]: 0 CFU per mL
- Bacterial load (colony forming units) [3, 5]: 0 CFU per mL
- Bacterial load (colony forming units) [3, 6]: 0 CFU per mL
- Bacterial load (colony forming units) [3, 7]: 0 CFU per mL
- Bacterial load (colony forming units) [3, 8]: 0 CFU per mL
- Bacterial load (colony forming units) [3, 9]: 0 CFU per mL
- Bacterial load (colony forming units) [3, 15]: 0 CFU per mL
- Bacterial load (colony forming units) [3, 16]: 0 CFU per mL
- Bacterial load (colony forming units) [3, 10]: 0 CFU per mL
- Bacterial load (colony forming units) [3, 17]: 0 CFU per mL
- Bacterial load (colony forming units) [3, 18]: 0 CFU per mL
- Bacterial load (colony forming units) ([3]; Xanthan Gum (0.5%) in water + 0.5% 2,3-alkanediol, fresh): 0 CFU per mL
- Effect on the microbial load of the natural polymer solutions (in words) [3]: superior antimicrobial activity
- Physical state [1]: liquid

Structure (SMILES): CCCCCC(O)CO (stereo not drawn) [1,2-heptanediol]
- Bacterial load (colony forming units) [3, 19]: 0 CFU per ml
- Bacterial load (colony forming units) [3, 20]: 0 CFU per ml
- Bacterial load (colony forming units) [3, 21]: 4 CFU per ml
- Bacterial load (colony forming units) ([3]; Genuvisco (CG-131, carrageenan 0.5%) in water + 0.5% 1,2-alkanediol, 2 days storage at 40° C.): 0 CFU per ml
- Bacterial load (colony forming units) [3, 22]: 0 CFU per ml
- Bacterial load (colony forming units) [3, 23]: 0 CFU per ml
- Bacterial load (colony forming units) [3, 24]: 0 CFU per ml
- Bacterial load (colony forming units) [3, 25]: 0 CFU per ml
- Bacterial load (colony forming units) [3, 26]: 0 CFU per ml
- Bacterial load (colony forming units) [3, 27]: 0 CFU per ml
- Bacterial load (colony forming units) [3, 28]: 0 CFU per ml
- Bacterial load (colony forming units) [3, 29]: 5 CFU per ml
- Bacterial load (colony forming units) [3, 11]: 0 CFU per mL
- Bacterial load (colony forming units) [3, 12]: 0 CFU per mL
- Bacterial load (colony forming units) [3, 13]: 4 CFU per mL
- Bacterial load (colony forming units) ([3]; Table 4: PolyCos N-75 (0.5%) in water + alkanediol or mixture, 0.5% total, 2 days storage at 40° C.): 0 CFU per mL
- Bacterial load (colony forming units) ([3]; Table 4: PolyCos N-75 (0.5%) in water + alkanediol or mixture, 0.5% total, 7 days storage at 40° C.): 0 CFU per mL
- Bacterial load (colony forming units) [3, 14]: 5 CFU per mL
- Bacterial load (colony forming units) ([3]; Table 4: Xanthan Gum (0.5%) in water + alkanediol or mixture, 0.5% total, 2 days storage at 40° C.): 2 CFU per mL
- Bacterial load (colony forming units) ([3]; Table 4: Xanthan Gum (0.5%) in water + alkanediol or mixture, 0.5% total, 7 days storage at 40° C.): 0 CFU per mL
- Bacterial load (colony forming units) ([3]; Table 5: Covathick (0.5 %) in water + alkanediol or mixture, 0.5% total, 2 days storage at 40° C.): 0 CFU per mL
- Bacterial load (colony forming units) ([3]; Table 5: Covathick (0.5 %) in water + alkanediol or mixture, 0.5% total, 7 days storage at 40° C.): 0 CFU per mL
- Bacterial load (colony forming units) ([3]; Table 5: Covathick (0.5 %) in water + alkanediol or mixture, 0.5% total, fresh): 4 CFU per mL
- Bacterial load (colony forming units) ([3]; Table 5: PolyCos N-75 (0.5 %) in water + alkanediol or mixture, 0.5% total, 2 days storage at 40° C.): 0 CFU per mL
- Bacterial load (colony forming units) ([3]; Table 5: PolyCos N-75 (0.5 %) in water + alkanediol or mixture, 0.5% total, 7 days storage at 40° C.): 0 CFU per mL
- Bacterial load (colony forming units) ([3]; Table 5: PolyCos N-75 (0.5 %) in water + alkanediol or mixture, 0.5% total, fresh): 5 CFU per mL
- Bacterial load (colony forming units) ([3]; Table 5: Xanthan Gum (0.5 %) in water + alkanediol or mixture, 0.5% total, 2 days storage at 40° C.): 2 CFU per mL
- Bacterial load (colony forming units) ([3]; Table 5: Xanthan Gum (0.5 %) in water + alkanediol or mixture, 0.5% total, 7 days storage at 40° C.): 0 CFU per mL
- Bacterial load (colony forming units) [3, 30]: 2 CFU per ml
- Bacterial load (colony forming units) ([3]; Xanthan Gum (Rheocare XGN 0.5%) in water + 0.5% 1,2-alkanediol, 7 days storage at 40° C.): 0 CFU per ml
- Activity to stabilize natural polymer solutions for storage by removing their microbial load (in words) ([3]; compared to 1,2-pentanediol and 1,2-hexanediol, Table 2): superior activity
- Physical state [1]: liquid
- Maximum solubility in water [2]: 2.5 % by weight

Structure (SMILES): CCCCCCC(O)CO (stereo not drawn) [1,2-octanediol]
- Physical state [1]: solid
- Maximum solubility in water [2]: 0.5 % by weight

Structure (SMILES): CCCCCCCCCC(O)CO (stereo not drawn) [1,2-undecanediol]
- Physical state [1]: solid
